According to the NIST ThermoML archive (doi:10.1021/je900596d):

Details: Vibrating tube method

FC(F)=C(F)C(F)(F)F [hexafluoropropene]
Details | mass density [kg/m3]
323.21 K, 828.7 kPa, Fluid (supercritical or subcritical phases) | 54.45
323.21 K, 843.1 kPa, Fluid (supercritical or subcritical phases) | 55.34
323.21 K, 857.3 kPa, Fluid (supercritical or subcritical phases) | 56.72
323.21 K, 871.6 kPa, Fluid (supercritical or subcritical phases) | 57.78
323.21 K, 885.7 kPa, Fluid (supercritical or subcritical phases) | 58.95
323.21 K, 899.5 kPa, Fluid (supercritical or subcritical phases) | 60.25
323.21 K, 913.3 kPa, Fluid (supercritical or subcritical phases) | 61.27
323.21 K, 926.9 kPa, Fluid (supercritical or subcritical phases) | 62.44
323.21 K, 940.4 kPa, Fluid (supercritical or subcritical phases) | 63.5
323.21 K, 953.6 kPa, Fluid (supercritical or subcritical phases) | 64.78
323.21 K, 979.1 kPa, Fluid (supercritical or subcritical phases) | 66.9
323.21 K, 991.3 kPa, Fluid (supercritical or subcritical phases) | 67.99
323.21 K, 1002.7 kPa, Fluid (supercritical or subcritical phases) | 69.01
323.21 K, 1014.7 kPa, Fluid (supercritical or subcritical phases) | 70.07
323.21 K, 1026.1 kPa, Fluid (supercritical or subcritical phases) | 71.06
323.21 K, 1037.2 kPa, Fluid (supercritical or subcritical phases) | 72
323.21 K, 1048.9 kPa, Fluid (supercritical or subcritical phases) | 73.11
323.21 K, 1059.5 kPa, Fluid (supercritical or subcritical phases) | 74
323.21 K, 1071.8 kPa, Fluid (supercritical or subcritical phases) | 75.2
323.21 K, 1084.6 kPa, Fluid (supercritical or subcritical phases) | 76.45
323.21 K, 1096.6 kPa, Fluid (supercritical or subcritical phases) | 77.55
323.21 K, 1108.7 kPa, Fluid (supercritical or subcritical phases) | 78.69
323.21 K, 1120.7 kPa, Fluid (supercritical or subcritical phases) | 80.05
323.21 K, 1132.3 kPa, Fluid (supercritical or subcritical phases) | 81.01
323.21 K, 1143.9 kPa, Fluid (supercritical or subcritical phases) | 82.09
323.21 K, 1155.2 kPa, Fluid (supercritical or subcritical phases) | 83.24
323.21 K, 1165.7 kPa, Fluid (supercritical or subcritical phases) | 84.23
323.21 K, 1176.1 kPa, Fluid (supercritical or subcritical phases) | 85.31
323.21 K, 1188.5 kPa, Fluid (supercritical or subcritical phases) | 86.52
323.21 K, 1200.2 kPa, Fluid (supercritical or subcritical phases) | 87.81
323.21 K, 1211.6 kPa, Fluid (supercritical or subcritical phases) | 88.92
323.21 K, 1222.4 kPa, Fluid (supercritical or subcritical phases) | 90.01
323.21 K, 1232.6 kPa, Fluid (supercritical or subcritical phases) | 91.08
323.21 K, 1244.2 kPa, Fluid (supercritical or subcritical phases) | 92.41
323.21 K, 1254.9 kPa, Fluid (supercritical or subcritical phases) | 93.54
323.21 K, 1265.5 kPa, Fluid (supercritical or subcritical phases) | 94.64
323.21 K, 1276.2 kPa, Fluid (supercritical or subcritical phases) | 95.86
323.21 K, 1286.6 kPa, Fluid (supercritical or subcritical phases) | 97.01
323.21 K, 1298.7 kPa, Fluid (supercritical or subcritical phases) | 98.44
323.21 K, 1311.6 kPa, Fluid (supercritical or subcritical phases) | 99.8
323.21 K, 1324 kPa, Fluid (supercritical or subcritical phases) | 101.35
323.21 K, 1336 kPa, Fluid (supercritical or subcritical phases) | 102.77
323.21 K, 1347.5 kPa, Fluid (supercritical or subcritical phases) | 104.06
323.21 K, 1358.7 kPa, Fluid (supercritical or subcritical phases) | 105.47
323.21 K, 1369.5 kPa, Fluid (supercritical or subcritical phases) | 106.75
323.21 K, 1380 kPa, Fluid (supercritical or subcritical phases) | 108.11
323.21 K, 1392.5 kPa, Fluid (supercritical or subcritical phases) | 109.8
323.21 K, 1402.5 kPa, Fluid (supercritical or subcritical phases) | 110.98
323.21 K, 1410.5 kPa, Fluid (supercritical or subcritical phases) | 112.1
323.21 K, 1411.1 kPa, Fluid (supercritical or subcritical phases) | 112.29
323.21 K, 1411.8 kPa, Fluid (supercritical or subcritical phases) | 112.41
323.21 K, 1412.5 kPa, Fluid (supercritical or subcritical phases) | 112.57
323.21 K, 1413.3 kPa, Fluid (supercritical or subcritical phases) | 112.79
323.21 K, 1414.6 kPa, Fluid (supercritical or subcritical phases) | 113.23
323.21 K, 1415.9 kPa, Fluid (supercritical or subcritical phases) | 113.81
323.21 K, 1417 kPa, Fluid (supercritical or subcritical phases) | 114.07
323.21 K, 1417.8 kPa, Fluid (supercritical or subcritical phases) | 114.29
323.21 K, 1418.6 kPa, Fluid (supercritical or subcritical phases) | 115.65
323.21 K, 1418.8 kPa, Fluid (supercritical or subcritical phases) | 116.26
323.37 K, 1419.4 kPa, Liquid | 1174.23
323.37 K, 1421.5 kPa, Liquid | 1174.38
323.37 K, 1423.2 kPa, Liquid | 1174.38
323.37 K, 1425.7 kPa, Liquid | 1174.43
323.37 K, 1427.1 kPa, Liquid | 1174.45
323.37 K, 1432.2 kPa, Liquid | 1174.63
323.37 K, 1436.2 kPa, Liquid | 1174.81
323.37 K, 1440.4 kPa, Liquid | 1174.76
323.37 K, 1445.7 kPa, Liquid | 1175
323.37 K, 1451.5 kPa, Liquid | 1175.02
323.37 K, 1457.1 kPa, Liquid | 1175.21
323.37 K, 1466.8 kPa, Liquid | 1175.47
323.37 K, 1497.2 kPa, Liquid | 1176.12
323.37 K, 1510 kPa, Liquid | 1176.43
323.37 K, 1522.1 kPa, Liquid | 1176.69
323.37 K, 1537.1 kPa, Liquid | 1176.99
323.37 K, 1549.7 kPa, Liquid | 1177.31
323.37 K, 1563.1 kPa, Liquid | 1177.61
323.37 K, 1577.9 kPa, Liquid | 1178.01
323.37 K, 1593 kPa, Liquid | 1178.25
323.37 K, 1606 kPa, Liquid | 1178.65
323.37 K, 1618.2 kPa, Liquid | 1178.79
323.37 K, 1633 kPa, Liquid | 1179.18
323.37 K, 1650.5 kPa, Liquid | 1179.47
323.37 K, 1665.3 kPa, Liquid | 1179.86
323.37 K, 1679.6 kPa, Liquid | 1180.16
323.37 K, 1693.1 kPa, Liquid | 1180.45
323.37 K, 1699.6 kPa, Liquid | 1180.56
323.37 K, 1718.6 kPa, Liquid | 1180.95
323.37 K, 1737.4 kPa, Liquid | 1181.34
323.37 K, 1760 kPa, Liquid | 1181.89
323.37 K, 1778.2 kPa, Liquid | 1182.25
323.37 K, 1797.3 kPa, Liquid | 1182.59
323.37 K, 1819.1 kPa, Liquid | 1183.13
323.37 K, 1845.8 kPa, Liquid | 1183.69
323.37 K, 1870.4 kPa, Liquid | 1184.11
323.37 K, 1897.4 kPa, Liquid | 1184.74
323.37 K, 1924.8 kPa, Liquid | 1185.37
323.37 K, 1943.5 kPa, Liquid | 1185.64
323.37 K, 1970 kPa, Liquid | 1186.24
323.37 K, 1988.8 kPa, Liquid | 1186.54
323.37 K, 2013.8 kPa, Liquid | 1187.15
323.37 K, 2040.4 kPa, Liquid | 1187.71
323.37 K, 2074.7 kPa, Liquid | 1188.33
323.37 K, 2102.6 kPa, Liquid | 1188.84
323.37 K, 2129.9 kPa, Liquid | 1189.44
323.37 K, 2157.7 kPa, Liquid | 1190.03
323.37 K, 2186.2 kPa, Liquid | 1190.47
323.37 K, 2213.3 kPa, Liquid | 1191.16
323.37 K, 2277.1 kPa, Liquid | 1192.28
323.37 K, 2311.9 kPa, Liquid | 1192.94
323.37 K, 2338 kPa, Liquid | 1193.41
323.37 K, 2366.9 kPa, Liquid | 1194
323.37 K, 2396.7 kPa, Liquid | 1194.59
323.37 K, 2428 kPa, Liquid | 1195.18
323.37 K, 2456.3 kPa, Liquid | 1195.7
323.37 K, 2482.6 kPa, Liquid | 1196.22
323.37 K, 2511.2 kPa, Liquid | 1196.77
323.37 K, 2547.6 kPa, Liquid | 1197.4
323.37 K, 2588.4 kPa, Liquid | 1198.21
323.37 K, 2628 kPa, Liquid | 1198.83
323.37 K, 2671.3 kPa, Liquid | 1199.65
323.37 K, 2714.7 kPa, Liquid | 1200.41
323.37 K, 2754.7 kPa, Liquid | 1201.07
323.37 K, 2795.1 kPa, Liquid | 1201.67
323.37 K, 2833.2 kPa, Liquid | 1202.46
323.37 K, 2876 kPa, Liquid | 1203.06
323.37 K, 2913.9 kPa, Liquid | 1203.87
323.37 K, 2953 kPa, Liquid | 1204.53
323.37 K, 2989.2 kPa, Liquid | 1205.13
323.37 K, 3027.6 kPa, Liquid | 1205.88
323.37 K, 3069.8 kPa, Liquid | 1206.59
323.37 K, 3107.8 kPa, Liquid | 1207.26
323.37 K, 3148.5 kPa, Liquid | 1207.95
